Laboratory results reported in patent publication US7528151B2, “Heterocyclic urea derivatives for the treatment of pain” (Glaxo Group Limited, priority 2003, dated 2009).
Structures can show the parent of a compound that is named as a salt.

Target: T1, human VR1 (Homo sapiens, UniProt Q8NER1)
T1 construct: expressed in transfected cells
Assay: FLIPR based calcium assay, capsaicin-induced response in 1321N1 cells stably expressing human VR1
Type: cell-based
Conditions: antagonism of capsaicin response; pKb generated from IC50 using the Cheng-Prusoff equation
Experimental: Transfected astrocytoma 1321N1 cells, stably expressing human VR1, were seeded into FLIPR plates at 25,000cells/well (96-well plate) and cultured overnight. The cells were subsequently loaded in medium containing 4 μM Fluo-3 AM (Molecular Probes) for 2 hours, at room temperature, in the dark. The plates were then washed 4 times with Tyrode containing 1.5 mM calcium, without probenecid. The cells were pre-incubated with compound or buffer control at room temperature for 30 minutes. Capsaicin (Sigma) was then added to the cells. Compounds having antagonist activity against the human VR1 were identified by detecting differences in fluorescence when measured after capsaicin addition, compared with no compound buffer controls.

T1 sequence (Q8NER1 whole entry): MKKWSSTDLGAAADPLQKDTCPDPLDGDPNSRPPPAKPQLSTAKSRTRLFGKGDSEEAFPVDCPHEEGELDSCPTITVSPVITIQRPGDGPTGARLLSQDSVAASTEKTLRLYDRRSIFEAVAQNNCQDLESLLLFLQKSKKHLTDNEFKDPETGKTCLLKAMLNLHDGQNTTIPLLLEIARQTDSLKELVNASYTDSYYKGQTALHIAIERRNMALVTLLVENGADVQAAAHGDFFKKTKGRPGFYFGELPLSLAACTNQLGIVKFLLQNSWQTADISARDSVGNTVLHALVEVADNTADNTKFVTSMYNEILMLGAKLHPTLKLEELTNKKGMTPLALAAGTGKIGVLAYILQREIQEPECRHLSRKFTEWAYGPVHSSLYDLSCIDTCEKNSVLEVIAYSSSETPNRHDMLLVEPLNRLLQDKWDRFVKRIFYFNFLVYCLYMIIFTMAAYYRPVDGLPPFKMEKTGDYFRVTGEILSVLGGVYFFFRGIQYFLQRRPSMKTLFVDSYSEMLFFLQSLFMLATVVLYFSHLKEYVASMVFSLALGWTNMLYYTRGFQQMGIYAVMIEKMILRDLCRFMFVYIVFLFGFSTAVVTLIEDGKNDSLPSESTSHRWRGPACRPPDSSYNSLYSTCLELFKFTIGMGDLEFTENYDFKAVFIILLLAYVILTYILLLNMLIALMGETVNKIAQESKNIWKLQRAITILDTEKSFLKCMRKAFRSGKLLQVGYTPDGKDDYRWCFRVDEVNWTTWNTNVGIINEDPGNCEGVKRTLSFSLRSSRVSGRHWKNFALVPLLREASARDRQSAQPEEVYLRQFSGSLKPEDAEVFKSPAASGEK

Row | Kb [µM] | Compound
1 | < 0.1 | Cc1nccc2c(NC(=O)NC3CCN(c4ncc(C(F)(F)F)cc4Cl)CC3)cccc12 [Example 1, 1-([3-Chloro-5-trifluoromethylpyridinyl-2-yl]piperidin-4-yl)-3-(1-methyl-isoquinolin-5-yl)-urea hydrochloride]
2 | < 0.1 | COc1nc(N2CCC(NC(=O)Nc3cccc4c(C)nccc34)CC2)ccc1C(F)(F)F [Example 2, 1-([6-Methoxy-5-trifluoromethylpyridinyl-2-yl]piperidin-4-yl)-3-(1-methyl-isoquinolin-5-yl)-urea hydrochloride]
